Source: patent publication US7285555B2, “6-aryl-7-halo-imidazo[1,2-a]pyrimidines as anticancer agents” (Wyeth Holdings Corporation, priority 2003, dated 2007)
pIC50: −log10 of the molar value.

Legend:
[1] = tested on: COLO 205 cells; assay: MTS cytotoxicity test procedure with COLO 205 cells; type: cell-based; details: Homo sapiens, 72 h, MTS assay, three days of culture
Procedure: The MTS assay, which is sold in kit form by Promega (Madison, Wis.; CellTiter 96 AQueous Non-Radioactive Cell Proliferation Assay), is based on the conversion by viable cells, but not by dead cells, of the tetrazolium salt, MTS (3-(4,5-dimethylthiazol-2-yl)-5-(3-carboxymethoxyphenyl)-2-(4-sulphophenyl)-2H-tetrazolium, inner salt), into a water-soluble colored formazan which is detected by spectrophotometry. Compounds are tested at nine concentrations, in order to determine IC50 values. For the test procedure, cells are harvested by trypsinization (or, in the case of non-adherent cells, by simple resuspension), washed, counted and distributed to wells of 96-well flat-bottom microtiter plates at 1000 cells per well in 200 μL of medium. In addition, one row of wells on a separate plate receives cells as above (“time 0” plate). All plates are incubated at 370 in humidified 5% CO2 in air for about 24 hr.
On day 2, compounds for test are diluted and added to wells. Compounds are dissolved in DMSO at 10 mg/mL. For each compound, nine serial 2-fold dilutions are prepared in DMSO. Ten μL of each dilution in DMSO is transferred to 100 μL of medium, mixed well, and then 5 μL of this dilution is transferred in quadruplicate to wells containing cells. The final high concentration of each compound is typically 1-5 μM. Plates are returned to the incubator for three days. At the time of drug addition to the experimental plates, the MTS assay is run on the “time 0” plate. This gives the “time 0 MTS value” which is related to the number of viable cells per well at the time of drug addition.
After three days of culture with test compounds (day 5 overall), the MTS assay is done on all wells of the experimental plates. The absorbance values of the quadruplicate sample wells are averaged and divided by the average of the “time 0” values. The average of control wells without drug, divided by the average “time 0” value, gives the maximal relative increase in MTS color yield due to cell growth during the final three days of culture. The average of control wells with high drug concentration, divided by the “time 0” value, gives the minimal relative color yield for cells that were completely killed. The nine values for each compound are plotted against concentration, and the concentration that produces a relative color yield half way between the maximum and minimum is taken as the IC50 value.
COLO 205 is a human colon carcinoma cell line that is used for comparative testing of the examples of this invention and several reference compounds (Table 1). This line is sensitive to paclitaxel and vincristine.

[2] = tested on: KB-8-5 cells; assay: SRB cytotoxicity test procedure with KB-8-5 cells; type: cell-based, human; details: SRB assay
Source text: Human cancer cell lines, unless otherwise noted, are obtained from the American Type Culture Collection (Rockville, Md.). The following drug-sensitive parental cell lines, and their derived drug-resistant counterparts, are obtained from the originators as listed: (a) S1 (parental line from a subclone of human colon carcinoma line LS174T) and derived S1-M1-3.2 (herein called S1-M1) which expresses the MXR drug transporter protein, are provided by Dr. L. Greenberger, Wyeth Research (Rabindran, S. K., He, H., Singh, M., Brown, E., Collins, K. I., Annable, T., and Greenberger, L. M. Reversal of a novel multidrug resistance mechanism in human colon carcinoma cells by fumitremorgin C. Cancer Res., 58: 5850-5858,1998); (b) parental HL-60 human promyelocytic leukemia line and derived HL-60/ADR, which expresses the MRP1 drug transporter protein, are provided by Dr. M. Center, University of Kansas (McGrath, T., and Center, M. S. Adriamycin resistance in HL60 cells in the absence of detectable P-glycoprotein. Biochem. Biophys. […] J. Biol. Chem., 261: 7762-7770, 1986) via Dr. L. Greenberger, Wyeth Research.
The SRB standard cytotoxicity assay is done according to previously reported methods (Discafani, C. M., Carroll, M. L., Floyd Jr., M. B. F., Hollander, I. J., Husain, Z., Johnson, B. D., Kitchen, D., May, M. K., Malo, M. S., Minnick Jr., A. A., Nilakantan, R., Shen, R., Wang Y-F., Wissner, A., Greenberger, L. M. Irreversible inhibition of epidermal growth factor receptor tyrosine kinase with in vivo activity by N-[4-[3-bromophenyl)amino]-6-quinaxolinyl]-2-butynamide (CL-387,785). Biochem. Pharmacol., 57: 917-925, 1999). Briefly, cells are plated in 100 μL of medium in 96-well flat-bottom microtiter plates in the morning of day 1 and allowed to adhere to the plates for 2-6 hr. Compounds are serially diluted into medium as 2× stocks and 100 μL of these stocks are added to cells in duplicate. Compounds are incubated with cells for 3 days. At the end of the incubation period the sulforhodamine B (SRB) assay, which measures protein content as an assessment of cell survival, is performed as described previously (Skehan, P., Storeng, R., Scudiero, D., Monks, A., McMahon, J., Vistica, D., Warren, J. T., Bokesch, H., Kenney, S., Boyd, M. R. New calorimetric cytotoxicity assay for anticancer-drug screening. J. Natl. Cancer Inst., 82:1107-1112, 1990) with some modifications. Medium is gently decanted from plates and replaced with 200 μL per well of cold serum-free medium containing a final concentration of 10% trichloroacetic acid. The plates are incubated for 1 hr at 40, washed 5 times in cold distilled water, and air-dried overnight. […] Absorbance is read on a Victor V multi-label plate reader (Perkin Elmer, Gaithersburg, Md.). […]

SMILES	pIC50 [1]	pIC50 ([2]; Homo sapiens, KB 8.5 cells, means of 2 independent experiments)	Ratio 8.5/KB ([2]; IC50 on KB 8.5 cells/IC50 on KB cells)
CN(C)CCCOc1cc(F)c(-c2c(Cl)nc3nccn3c2C2CCCCCC2)c(F)c1 [Example 6, 3-[4-(7-Chloro-5-cycloheptylimidazo[1,2-a]pyrimidin-6-yl)-3,5-difluorophenoxy]-N,N-dimethylpropan-1-amine]	7.35		
CC(=O)O[C@H]1C(=O)[C@@]2(C)[C@H]([C@H](OC(=O)c3ccccc3)[C@]3(O)C[C@H](OC(=O)[C@H](O)[C@@H](NC(=O)c4ccccc4)c4ccccc4)C(C)=C1C3(C)C)[C@]1(OC(C)=O)CO[C@@H]1C[C@@H]2O [Paclitaxel, reference compound]		7.47	16
